In patent US12594276B2, “Inhibitors of human immunodeficiency virus replication” (ViiV Healthcare UK (No.5) Limited, priority 2024, dated 2026):

Experiments:
Assay type in all cases: cell-based
[1] = test system: recombinant NL4-3 virus (nef section replaced with Renilla luciferase gene) in MT-2 cells; test: HIV cell culture assay (antiviral activity, luciferase readout)
In short: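 293T transfection → virus harvest at 2-3 d → titer in MT-2 by luciferase. MT-2 + virus + serial cpd dilutions, 4-5 d. Live-cell luciferase read; EC50 by median effect fit.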

uninfected MT2 cells = test: Compound cytotoxicity, XTT-based colorimetric assay; details: uninfected MT2 cells, day 4, XTT
In short: (§1)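 Cells seeded as for the antiviral assay but left uninfected (MT2). Compound exposure continued to day 4. XTT reagent added and colour read. CC50 calculated.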

[2] = as above; details: human; uninfected MT2 cells, day 4, XTT; read-out: CC50
In short: as §1

[3] = Renilla, NL43, MT-2 cells infected for 4-5 days with recombinant NL4-3 Renilla luciferase virus

Compound	EC50 ([1]; MT-2 cells infected for 4-5 days with recombinant NL4-3 Renilla luciferase virus) [pM]	CC50 (uninfected MT2 cells) [pM]	EC50 [1, 3] [pM]	CC50 at 4 days [2] [pM]
Cc1cc(C2(F)CCC(F)(F)CC2)nc2nc([C@H](Cc3cc(F)cc(F)c3)NC(=O)Cn3nc(C(F)F)c4c3C(F)(F)[C@@H]3C[C@H]43)n(-c3ccc(Cl)c4c(NS(C)(=O)=O)nn(C[C@@H](C)N5C[C@H](F)C[C@H](F)C5)c34)c(=O)c12 (atropisomer, axis not shown; (P)) [Example 703, N-[(1S)-1-[(3P)-3-{4-chloro-1-[(2S)-2-[(3R,5S)-3,5-difluoropiperidin-1-yl]propyl]-3-methanesulfonamido-1H-indazol-7-yl}-5-methyl-4-oxo-7-(1,4,4-trifluorocyclohexyl)-3H,4H-pyrido[2,3-d]pyrimidin-2-yl]-2-(3,5-difluorophenyl)ethyl]-2-[(2S,4R)-9-(difluoromethyl)-5,5-difluoro-7,8-diazatricyclo[4.3.0.0^2,^4]nona-1(6),8-dien-7-yl]acetamide]	17	> 20000	–	–
CCOCCn1nc(NS(C)(=O)=O)c2c(Cl)ccc(-n3c([C@H](Cc4cc(F)cc(F)c4)NC(=O)Cn4nc(C(F)F)c5c4C(F)(F)[C@@H]4C[C@H]54)nc4nc(C5CCC(F)(F)CC5)cc(C(F)F)c4c3=O)c21 (atropisomer, axis not shown; (P)) [Example 150, N-[(1S)-1-[(3P)-3-[4-chloro-1-(2-ethoxyethyl)-3-methanesulfonamido-1H-indazol-7-yl]-7-(4,4-difluorocyclohexyl)-5-(difluoromethyl)-4-oxo-3H,4H-pyrido[2,3-d]pyrimidin-2-yl]-2-(3,5-difluorophenyl)ethyl]-2-[(2S,4R)-9-(difluoromethyl)-5,5-difluoro-7,8-diazatricyclo[4.3.0.0^2,^4]nona-1(6),8-dien-7-yl]acetamide]	–	–	17	> 50000
CS(=O)(=O)Nc1nn(CCN2CCC(F)(F)CC2)c2c(-n3c([C@H](Cc4cc(F)cc(F)c4)NC(=O)Cn4nc(C(F)F)c5c4C(F)(F)[C@@H]4C[C@H]54)nc4nc(C5CCC(F)(F)CC5)cc(CF)c4c3=O)ccc(Cl)c12 (atropisomer, axis not shown; (P)) [Example 514, N-[(1S)-1-[(3P)-3-{4-chloro-1-[2-(4,4-difluoropiperidin-1-yl)ethyl]-3-methanesulfonamido-1H-indazol-7-yl}-7-(4,4-difluorocyclohexyl)-5-(fluoromethyl)-4-oxo-3H,4H-pyrido[2,3-d]pyrimidin-2-yl]-2-(3,5-difluorophenyl)ethyl]-2-[(2S,4R)-9-(difluoromethyl)-5,5-difluoro-7,8-diazatricyclo[4.3.0.0^2,^4]nona-1(6),8-dien-7-yl]acetamide]	–	–	14	> 20000
Cc1cc(C2(F)CCC(F)(F)CC2)nc2nc([C@H](Cc3cc(F)cc(F)c3)NC(=O)Cn3nc(C4CC4)c4c3C[C@@H]3C[C@H]43)n(-c3ccc(Cl)c4c(NS(C)(=O)=O)nn([C@@H](C)CN5C[C@@H](C)O[C@@H](C)C5)c34)c(=O)c12 (relative stereo) [Example 748, N-[(1S)-1-[(3P)-3-{4-chloro-1-[(2S)-1-[(2R,6S)-2,6-dimethylmorpholin-4-yl]propan-2-yl]-3-methanesulfonamido-1H-indazol-7-yl}-5-methyl-4-oxo-7-(1,4,4-trifluorocyclohexyl)-3H,4H-pyrido[2,3-d]pyrimidin-2-yl]-2-(3,5-difluorophenyl)ethyl]-2-[(2R*,4R*)-9-cyclopropyl-7,8-diazatricyclo[4.3.0.0^2,^4]nona-1(6),8-dien-7-yl]acetamide]	–	–	24	> 20000
COCCCn1nc(NS(C)(=O)=O)c2c(Cl)ccc(-n3c([C@H](Cc4cc(F)cc(F)c4)NC(=O)Cn4nc(C(F)F)c5c4C(F)(F)[C@@H]4C[C@H]54)nc4nc(C5CCC(F)(F)CC5)cc(NC[C@@H]5CCOC5)c4c3=O)c21 (atropisomer, axis not shown; (P)) [Example 568, N-[(1S)-1-[(3P)-3-[4-chloro-3-methanesulfonamido-1-(3-methoxypropyl)-1H-indazol-7-yl]-7-(4,4-difluorocyclohexyl)-4-oxo-5-({[(3S)-oxolan-3-yl]methyl}amino)-3H,4H-pyrido[2,3-d]pyrimidin-2-yl]-2-(3,5-difluorophenyl)ethyl]-2-[(2S,4R)-9-(difluoromethyl)-5,5-difluoro-7,8-diazatricyclo[4.3.0.0^2,^4]nona-1(6),8-dien-7-yl]acetamide]	–	–	10	> 20000
CS(=O)(=O)Nc1nn(CCN2CCC(F)(F)CC2)c2c(-n3c([C@H](Cc4cc(F)cc(F)c4)NC(=O)Cn4nc(C(F)F)c5c4C(F)(F)[C@@H]4C[C@H]54)nc4nc(C5CCC(F)(F)CC5)cc(CO)c4c3=O)ccc(Cl)c12 (atropisomer, axis not shown; (P)) [Example 675, N-[(1S)-1-[(3P)-3-{4-chloro-1-[2-(4,4-difluoropiperidin-1-yl)ethyl]-3-methanesulfonamido-1H-indazol-7-yl}-7-(4,4-difluorocyclohexyl)-5-(hydroxymethyl)-4-oxo-3H,4H-pyrido[2,3-d]pyrimidin-2-yl]-2-(3,5-difluorophenyl)ethyl]-2-[(2S,4R)-9-(difluoromethyl)-5,5-difluoro-7,8-diazatricyclo[4.3.0.0^2,4]nona-1(6),8-dien-7-yl]acetamide]	–	–	31	> 20000
C[C@@H]1CN(CCn2nc(NS(C)(=O)=O)c3c(Cl)ccc(-n4c([C@H](Cc5cc(F)cc(F)c5)NC(=O)Cn5nc(C6CC6)c6c5C[C@@H]5C[C@H]65)nc5nc(C6CCC(F)(F)CC6)cc(C(F)F)c5c4=O)c32)CC(C)(C)O1 (atropisomer, axis not shown; (P)) [Example 462, N-[(1S)-1-[(3P)-3-(4-chloro-3-methanesulfonamido-1-{2-[(6R)-2,2,6-trimethylmorpholin-4-yl]ethyl}-1H-indazol-7-yl)-7-(4,4-difluorocyclohexyl)-5-(difluoromethyl)-4-oxo-3H,4H-pyrido[2,3-d]pyrimidin-2-yl]-2-(3,5-difluorophenyl)ethyl]-2-[(2S,4S)-9-cyclopropyl-7,8-diazatricyclo[4.3.0.0^2,^4]nona-1(6),8-dien-7-yl]acetamide]	–	–	19	> 20000
Cc1cc(C2CCC(F)(F)CC2)nc2nc([C@H](Cc3cc(F)cc(F)c3)NC(=O)Cn3nc(C4CC4)c4c3C[C@@H]3C[C@H]43)n(-c3ccc(Cl)c4c(NS(C)(=O)=O)nn(CCN5C[C@H](F)C[C@H](F)C5)c34)c(=O)c12 (atropisomer, axis not shown; (P)) [Example 1, N-[(1S)-1-[(3P)-3-(4-chloro-1-{2-[(3R,5S)-3,5-difluoropiperidin-1-yl]ethyl}-3-methanesulfonamido-1H-indazol-7-yl)-7-(4,4-difluorocyclohexyl)-5-methyl-4-oxo-3H,4H-pyrido[2,3-d]pyrimidin-2-yl]-2-(3,5-difluorophenyl)ethyl]-2-[(2S,4S)-9-cyclopropyl-7,8-diazatricyclo[4.3.0.0^2,^4]nona-1(6),8-dien-7-yl]acetamide]	–	–	9	> 50000
C[C@@H]1CN(Cc2cc(C3CCC(F)(F)CC3)nc3nc([C@H](Cc4cc(F)cc(F)c4)NC(=O)Cn4nc(C(F)F)c5c4C(F)(F)[C@@H]4C[C@H]54)n(-c4ccc(Cl)c5c(NS(C)(=O)=O)nn(CCN6CCC(F)CC6)c45)c(=O)c23)C[C@H](C)O1 (atropisomer, axis not shown; (P)) [Example 527, N-[(1S)-1-[(3P)-3-{4-chloro-1-[2-(4-fluoropiperidin-1-yl)ethyl]-3-methanesulfonamido-1H-indazol-7-yl}-7-(4,4-difluorocyclohexyl)-5-{[(2R,6S)-2,6-dimethylmorpholin-4-yl]methyl}-4-oxo-3H,4H-pyrido[2,3-d]pyrimidin-2-yl]-2-(3,5-difluorophenyl)ethyl]-2-[(2S,4R)-9-(difluoromethyl)-5,5-difluoro-7,8-diazatricyclo[4.3.0.0^2,^4]nona-1(6),8-dien-7-yl]acetamide]	–	–	12	> 20000
CS(=O)(=O)Nc1nn(CCN2CCC(F)(C(F)(F)F)C2)c2c(-n3c([C@H](Cc4cc(F)cc(F)c4)NC(=O)Cn4nc(C(F)F)c5c4C(F)(F)[C@@H]4C[C@H]54)nc4nc(C5CCC(F)(F)CC5)ccc4c3=O)ccc(Cl)c12 (stereo partly drawn) [Example 191, N-[(1S)-1-[(3P)-3-(4-chloro-1-{2-[3-fluoro-3-(trifluoromethyl)pyrrolidin-1-yl]ethyl}-3-methanesulfonamido-1H-indazol-7-yl)-7-(4,4-difluorocyclohexyl)-4-oxo-3H,4H-pyrido[2,3-d]pyrimidin-2-yl]-2-(3,5-difluorophenyl)ethyl]-2-[(2S,4R)-9-(difluoromethyl)-5,5-difluoro-7,8-diazatricyclo[4.3.0.0^2,^4]nona-1(6),8-dien-7-yl]acetamide]	–	–	24	> 50000
